# According to US11590129B2, “Combination therapy with an antitumor alkaloid” (PHARMA MAR, S.A., priority 2010, dated 2023):
# Like-named read-outs stand apart in the source and are kept apart here.
# How the values were obtained:
# [1] = tested on: A549 human lung carcinoma cell line; assay: MTT cytotoxicity assay in A549 cells: IC50 of single agents and combinations with PM01183; format: cell-based; conditions: Homo sapiens
# Experimental: (§1) Additional serial dilutions were prepared in serum-free culture medium to achieve a final 4× concentration. Aliquots of 50 μL of each diluted compound were added per well.
# A549 was the human lung carcinoma cell line selected for this assay.
# (§2) a. […] Briefly, cells were harvested and seeded in 96 well microtiter plates at a density of 5,000 cells in 150 μL of culture medium and incubated for 24 hours in drug-free medium before treatment with vehicle alone or test compounds for 72 h.
# (§3) The cytotoxic effect was measured by the MTT reduction assay, in which 3-(4,5-Dimethylthiazol-2-yl)-2,5-diphenyltetrazolium bromide, a tetrazole, which is reduced to purple formazan in the mitochondria of living cells, was used. MTT (50 μL of 1 mg/mL stock solution) was added to the wells and incubated for 8 hours at 37° C. until formazan crystals were formed. After gently removing the culture medium, DMSO was added to dissolve the insoluble purple formazan product into a colored solution. […] Results were expressed as percentage of control cell growth.
# (§4) b. In a second set of assays, A549 human tumor cells were incubated with PM01183 in combination with each of the agents mentioned above.
# (§5) As a visual aid, response values were plotted on a scatter plot with dose ratios given on the x-axis and % response values on the y-axis. […] In cases where response values at the two endpoints were approximately equivalent, points lying above or below this predicted line of additivity could be interpreted as representing antagonistic or synergistic drug interaction, respectively.
# [2] = tested on: PC-3 human prostate cancer cell line; assay: cells; conditions: Homo sapiens, PC-3, 72 h
# Experimental: as §2, §3, §4, §5, §1
# PC-3 was the human prostate adenocarcinome cell line selected for this assay.
# [3] = tested on: HGC-27 human gastric carcinoma cell line; assay: cells; conditions: Homo sapiens, HGC-27, 72 h
# Experimental: as §2, §3, §4, §5, §1
# HGC-27 was the human gastric carcinoma cell line selected for this assay.
# [4] = tested on: IGROV-1 human ovarian adenocarcinoma cell line; assay: cells; conditions: Homo sapiens, IGROV-1, 72 h
# Experimental: as §2, §3, §4, §5, §1
# IGROV-1 was the human ovarian adenocarcinoma cell line selected for this assay.
# [5] = tested on: HepG2 human hepatocellular liver carcinoma cell line; assay: MTT cytotoxicity assay in HepG2 cells: IC50 of single agents and combinations with PM01183; format: cell-based; conditions: Homo sapiens
# Experimental: as §2, §3, §4, §5, §1
# HepG2 was the human hepatocellular liver carcinoma cell line selected for this assay.
# [6] = tested on: MDA-MB-231 human breast adenocarcinoma cell line; assay: cells; conditions: Homo sapiens, MDA-MB-231, 72 h
# Experimental: as §2, §3, §4, §5, §1
# A2780 tumors = assay: Human ovarian tumor xenografts (A2780) in athymic nude mice, tumor volume % T/C; format: in vivo
# Experimental: (§6) Female athymic nude mice (Harlan Laboratories Models, S.L. (Barcelona, Spain) were utilized for all experiments. Animals were housed in individually ventilated cages, up to ten per cage in a 12-hour light-dark cycle at 21-23° C. and 40-60% humidity. The mice were allowed free access to irradiated standard rodent diet and sterilized water. Animals were acclimated for at least 5 days prior to tumor implantation with a tumor cell suspension.
# The formula to calculate volume for a prolate ellipsoid was used to estimate tumor volume (mm^3) from 2-dimensional tumor measurements: Tumor volume (mm^3)=[L×W^2]÷2, where L is the length and it is the longest diameter in mm, and W is the width and it is the shortest diameter in mm of a tumor. Assuming unit density, volume was converted to weight (i.e., 1 mm^3=1 mg). Tumor volume and animal body weights were measured 2-3 times per week starting form the first day of treatment (Day 0).
# PM01183 was provided in the form of vials of lyophilized PM01183 cake which was reconstituted with water for infusion to a concentration of 0.2 mg/mL. The PM01183 stock solution was further diluted in 5% glucose solution for injection to the dosing formulation concentrations. […] Vinorelbine was provided as a solution prepared by diluting the product with 0.9% saline solution.
# Dose level groups were administered either as single agents or in combination.
# (§7) Comparison of the median tumor volume in the treatment groups (T) to the median tumor volume in the control group (T/C×100%) was used for evaluation of the antitumor efficacy.
# Day 9 for PM01183 and vinorelbine study) using the median-effect principle (Chou T. C. Pharmacol. Rev.
# [7] = tested on: A673 human rhabdomyosarcoma cell line; assay: cells; conditions: Homo sapiens, A673, 72 h
# Experimental: as §2, §3, §4, §5, §1
# A673 was the human rhabdomyosarcoma cell line selected for this assay.
# [8] = tested on: RXF-393 human kidney carcinoma cell line; assay: cells; conditions: Homo sapiens, RXF 393, 72 h
# Experimental: as §2, §3, §4, §5, §1
# [9] = tested on: U87-MG human glioblastoma cell line; assay: cells; conditions: Homo sapiens, U-87 MG, 72 h
# Experimental: as §2, §3, §4, §5, §1
# U87-MG was the human glioblastoma cell line selected for this assay.
# [10] = tested on: HT-29 human colon adenocarcinoma cell line; assay: cells; conditions: Homo sapiens, HT-29, 72 h
# Experimental: as §2, §3, §4, §5, §1
# HT-29 was the human colon adenocarcinoma cell line selected for this assay.
# U87-MG tumors = assay: Human brain tumor xenografts (U87-MG) in athymic nude mice, tumor volume % T/C; format: in vivo
# Experimental: as §6
# The tumor model used in these studies was U87-MG cell line, which was obtained from the American Type Culture Collection (ATCC HTB-14™).
# U87-MG cells were grown at 37° C. with 5% CO2 in Minimum Essential Medium Eagle (MEME). Each animal was subcutaneously implanted on the right flank, using 26G needle and a 1 cc syringe, with 5×10^6 U87-MG cells, from in vitro passage 5, in 0.05 mL suspension of 50% Matrigel and 50% serum free medium, without antibiotics.
# PM01183 was provided in the form of vials of lyophilized PM01183 cake which was reconstituted with water for infusion to a concentration of 0.2 mg/mL. The PM01183 stock solution was further diluted in 5% glucose solution for injection to the dosing formulation concentrations. Temozolomide was provided as a solution prepared by diluting the product in DMSO 10% in 0.9% saline solution for injection to the target final concentration.
# In these experiments, PM01183 and temozolomide treatments, as well as placebo, were administered as follows: PM01183, intravenously once per week up to 3 consecutive weeks, on Days 0, 7 and 14, temozolomide orally, in a daily basis during 8 consecutive days (Days 0 to 7), and placebo was administered following the same schedule as those provided for PM01183 and temozolomide. Dose level groups were administered either as single agents or in combination.
# as §7
# [11] = paclitaxel 6.25 mg/kg iv days 0,7
# [12] = paclitaxel 12.5 mg/kg iv days 0,7
# [13] = paclitaxel 18.75 mg/kg iv days 0,7
# [14] = paclitaxel 25 mg/kg iv days 0,7
# [15] = HepG2, 72 hours drug exposure, MTT, read-out: IC50
# [16] = vinorelbine 4.0 mg/kg iv days 0,7
# [17] = vinorelbine 8.0 mg/kg iv days 0,7
# [18] = temozolomide 1.5 mg/kg orally daily days 0 to 7
# [19] = temozolomide 3 mg/kg orally daily days 0 to 7
compound,measurement,setting,value
"CC(=O)O[C@H]1C(=O)[C@@]2(C)[C@H]([C@H](OC(=O)c3ccccc3)[C@]3(O)C[C@H](OC(=O)[C@H](O)[C@@H](NC(=O)c4ccccc4)c4ccccc4)C(C)=C1C3(C)C)[C@]1(OC(C)=O)CO[C@@H]1C[C@@H]2O [Paclitaxel, paclitaxel]",IC50,"[1]; A549, 72 h",0.04 µM
same,IC50,[2],0.09 µM
same,IC50,[3],0.005 µM
same,IC50,[4],0.095 µM
same,IC50,"[5]; HepG2, 72 h",0.057 µM
same,IC50,[6],0.0085 µM
same,% T/C on day 0,A2780 tumors; [11],94.3%
same,% T/C on day 3,A2780 tumors; [11],60.2%
same,% T/C on day 5,A2780 tumors; [11],79.7%
same,% T/C on day 7,A2780 tumors; [11],81.3%
same,% T/C on day 10,A2780 tumors; [11],59.2%
same,% T/C on day 0,A2780 tumors; [12],96.2%
same,% T/C on day 3,A2780 tumors; [12],62.5%
same,% T/C on day 5,A2780 tumors; [12],73.9%
same,% T/C on day 7,A2780 tumors; [12],62.5%
same,% T/C on day 10,A2780 tumors; [12],50.8%
same,% T/C on day 0,A2780 tumors; [13],95.0%
same,% T/C on day 3,A2780 tumors; [13],60.4%
same,% T/C on day 7,A2780 tumors; [13],41.5%
same,% T/C on day 10,A2780 tumors; [13],31.1%
same,% T/C on day 0,A2780 tumors; [14],95.3%
same,% T/C on day 3,A2780 tumors; [14],49.3%
same,% T/C on day 7,A2780 tumors; [14],34.0%
same,% T/C on day 10,A2780 tumors; [14],19.8%
"CC[C@]1(O)C[C@H]2CN(CCc3c([nH]c4ccccc34)[C@@](C(=O)OC)(c3cc4c(cc3OC)N(C=O)[C@H]3[C@@](O)(C(=O)OC)[C@H](OC(C)=O)[C@]5(CC)C=CCN6CC[C@]43[C@@H]65)C2)C1 [Vincristine, vincristine]",IC50,"[1]; A549, 72 hours drug exposure, MTT, read-out: IC50",0.25 µM
same,IC50,[7],0.0086 µM
same,IC50,[3],0.0125 µM
same,IC50,[4],0.379 µM
same,IC50,[5]; [15],0.06 µM
same,IC50,[6],0.05 µM
same,IC50,[8],0.0173 µM
same,IC50,[9],0.1 µM
"CCC1=C[C@@H]2CN(C1)Cc1c([nH]c3ccccc13)[C@@](C(=O)OC)(c1cc3c(cc1OC)N(C)[C@H]1[C@@](O)(C(=O)OC)[C@H](OC(C)=O)[C@]4(CC)C=CCN5CC[C@]31[C@@H]54)C2 [Vinorelbine, vinorelbine]",IC50,[7],0.05 µM
same,IC50,[2],10 µM
same,IC50,[3],0.065 µM
same,IC50,[4],1.39 µM
same,IC50,[5]; [15],1.02 µM
same,IC50,[6],12 µM
same,IC50,[8],8.5 µM
same,IC50,[10],0.03 µM
same,% T/C on day 0,A2780 tumors; [16],97.2%
same,% T/C on day 2,A2780 tumors; [16],88.6%
same,% T/C on day 5,A2780 tumors; [16],69.3%
same,% T/C on day 7,A2780 tumors; [16],81.7%
same,% T/C on day 9,A2780 tumors; [16],77.3%
same,% T/C on day 0,A2780 tumors; [17],97.6%
same,% T/C on day 2,A2780 tumors; [17],79.5%
same,% T/C on day 5,A2780 tumors; [17],45.0%
same,% T/C on day 7,A2780 tumors; [17],54.2%
same,% T/C on day 9,A2780 tumors; [17],47.9%
"O=C(CCCCCCC(=O)Nc1ccccc1)NO [Vorinostat, vorinostat]",IC50,[7],2.16 µM
same,IC50,[4],2.88 µM
Cn1nnc2c(C(N)=O)ncn2c1=O [temozolomide],% T/C on day 0,U87-MG tumors; Temozolomide 1.0 mg/kg,98.2%
same,% T/C on day 2,U87-MG tumors; Temozolomide 1.0 mg/kg,100.2%
same,% T/C on day 4,U87-MG tumors; Temozolomide 1.0 mg/kg,65.1%
same,% T/C on day 7,U87-MG tumors; Temozolomide 1.0 mg/kg,81.2%
same,% T/C on day 9,U87-MG tumors; Temozolomide 1.0 mg/kg,55.0%
same,% T/C on day 11,"U87-MG tumors; Temozolomide 1.0 mg/kg, day 11",63.5%
same,% T/C on day 14,"U87-MG tumors; Temozolomide 1.0 mg/kg, day 14",73.1%
same,% T/C on day 16,"U87-MG tumors; Temozolomide 1.0 mg/kg, day 16",75.0%
same,% T/C on day 0,U87-MG tumors; Temozolomide 1.5 mg/kg,94.1%
same,% T/C on day 2,U87-MG tumors; Temozolomide 1.5 mg/kg,96.9%
same,% T/C on day 4,U87-MG tumors; Temozolomide 1.5 mg/kg,75.6%
same,% T/C on day 7,U87-MG tumors; Temozolomide 1.5 mg/kg,73.0%
same,% T/C on day 9,U87-MG tumors; Temozolomide 1.5 mg/kg,56.5%
same,% T/C on day 11,"U87-MG tumors; Temozolomide 1.5 mg/kg, day 11",59.3%
same,% T/C on day 14,"U87-MG tumors; Temozolomide 1.5 mg/kg, day 14",50.0%
same,% T/C on day 16,"U87-MG tumors; Temozolomide 1.5 mg/kg, day 16",53.5%
same,% T/C on day 0,U87-MG tumors; Temozolomide 3.0 mg/kg,97.1%
same,% T/C on day 2,U87-MG tumors; Temozolomide 3.0 mg/kg,95.5%
same,% T/C on day 4,U87-MG tumors; Temozolomide 3.0 mg/kg,67.3%
same,% T/C on day 7,U87-MG tumors; Temozolomide 3.0 mg/kg,39.4%
same,% T/C on day 9,U87-MG tumors; Temozolomide 3.0 mg/kg,25.3%
same,% T/C on day 11,"U87-MG tumors; Temozolomide 3.0 mg/kg, day 11",22.9%
same,% T/C on day 14,"U87-MG tumors; Temozolomide 3.0 mg/kg, day 14",28.4%
same,% T/C on day 16,"U87-MG tumors; Temozolomide 3.0 mg/kg, day 16",31.5%
same,% T/C on day 11,U87-MG tumors; [18],59.3%
same,% T/C on day 14,U87-MG tumors; [18],50.0%
same,% T/C on day 16,U87-MG tumors; [18],53.5%
same,% T/C on day 11,U87-MG tumors; [19],22.9%
same,% T/C on day 14,U87-MG tumors; [19],28.4%
same,% T/C on day 16,U87-MG tumors; [19],31.5%
